Experimental data reported in US20250249008A1, “PHARMACEUTICAL COMPOSITIONS OF ENSIFENTRINE FOR CHRONIC OBSTRUCTIVE PULMONARY DISEASE” (Verona Pharma PLC, priority 2024, published 2025).

Experiments:
[1] = test system: patients with moderate to severe COPD; test: Clinical study in COPD: moderate/severe COPD exacerbations (rate ratio, time to first exacerbation); format: in vivo, human
Source text: A COPD exacerbation may be a moderate COPD exacerbation or a severe COPD exacerbation. A moderate exacerbation is defined as worsening symptoms of COPD (as defined hereinabove) requiring a minimum of three days of treatment with oral/systemic corticosteroids and/or antibiotics. A severe exacerbation is defined as worsening symptoms of COPD (as defined hereinabove) requiring in-patient hospitalization. In some embodiments, the pharmaceutical compositions provided herein reduce the severity of COPD exacerbations in a patient, and may be used in preventing severe COPD exacerbations in a subject. In some embodiments, pharmaceutical compositions reduce the severity of COPD exacerbations. In some embodiments, […]
Ensifentrine's ability to reduce the frequency and or severity of COPD exacerbations was studied in 1,549 subjects. Ensifentrine's ability to reduce the frequency and or severity of COPD exacerbations was assessed in various subgroup populations. In one part of the study, subjects were assessed based on whether they were diagnosed with mild or moderate COPD or severe or very severe COPD. […]
These subjects were also assessed for the time to first moderate/severe COPD exacerbation, as measured by a hazard ratio from a Cox model. […]

[2] = test system: patients with moderate to severe COPD; test: Clinical study in COPD: dyspnea by transition dyspnea index (TDI) in subjects using LABA + ICS; format: in vivo, human
Procedure: A clinical study was conducted to determine the efficacy of ensifentrine in treating COPD compared with placebo. Ensifentrine was administered by nebulizer at a dose of 3 mg twice daily (BID) for 24 weeks. The study was a multicenter, randomized, double-blind, parallel group, placebo-controlled trial with around 800 patients and 5:3 randomization.
The study population included patients aged 40-80 years with moderate to severe COPD (FEV1 30%-70% p.n., FEV1/forced vital capacity (FVC) ratio<0.7, with mMRC≥2). The randomization stratified (a) the use of stable background maintenance LAMA or LABA therapy use (approx. 50% yes or no) and (b) cigarette smoking (current or former). Inhaled corticosteroid (ICS) maintenance therapy was permitted in up to 20% of patients under certain provisions.
Ensifentrine was studied for its ability to treat COPD in subjects using inhalable corticosteroids (ICS) while also using a LABA.

COc1cc2c(cc1OC)-c1c/c(=N\c3c(C)cc(C)cc3C)n(CCNC(N)=O)c(=O)n1CC2 [Ensifentrine, N-(2-{(2E)-9,10-dimethoxy-4-oxo-2-[(2,4,6-trimethylphenyl)imino]-6,7-dihydro-2H-pyrimido[6,1-a]isoquinolin-3(4H)-yl}ethyl)urea]
Reductions in exacerbations ([1]; subjects with baseline blood eosinophil concentrations of greater than 150 cells/μL): Reductions in exacerbations were observed
Reductions in exacerbations ([1]; subjects with baseline blood eosinophil concentrations of less than or equal to 150 cells/μL): Reductions in exacerbations were observed
Transition Dyspnea Index, LS Mean ([2]; COPD medication LABA + ICS): 1.394 (0.4748)
Transition Dyspnea Index, Estimate (Ensi-Pla) ([2]; COPD medication LABA + ICS, difference ensifentrine minus placebo): 0.768
Dyspnea compared to placebo ([2]; subjects taking LABA and ICS): exhibited improvements in dyspnea
